Results: BindingDB's records for doi:10.1021/jm00054a015 (Merck Research Laboratories, 1993)

These compounds were tested against T1, Dimer of Gag-Pol polyprotein [489-587] (Human immunodeficiency virus 1, UniProt P12497) (assay: Protease Inhibition Assay). Settings: pH 5.5; 30 °C.
T1 construct: 489-587
Method: Sensitivity of HIV-1 protease activity to protease inhibitors was determined by a peptide substrate cleavage assay. Protease products were analyzed on a reverse-phase high-pressure liquid chromatograph.

Structure (SMILES)	IC50 [nM]
CC(C)(C)NC(=O)C1C[C@@H]2CCCC[C@@H]2CN1C[C@@H](O)[C@H](Cc1ccccc1)NC(=O)O[C@@H]1C=CCOC1 (stereo partly drawn) [(3R)-3,6-dihydro-2H-pyran-3-yl N-[(2S,3R)-4-[(4aS,8aS)-3-(tert-butylcarbamoyl)-decahydroisoquinolin-2-yl]-3-hydroxy-1-phenylbutan-2-yl]carbamate]	48.9
CC(C)(C)NC(=O)C1C[C@@H]2CCCC[C@@H]2CN1C[C@@H](O)[C@H](Cc1ccccc1)NC(=O)O[C@H]1C=CCOC1 (stereo partly drawn) [(3S)-3,6-dihydro-2H-pyran-3-yl N-[(2S,3R)-4-[(4aS,8aS)-3-(tert-butylcarbamoyl)-decahydroisoquinolin-2-yl]-3-hydroxy-1-phenylbutan-2-yl]carbamate]	314
O=C(N[C@@H](Cc1ccccc1)[C@@H](O)C[C@@H](Cc1ccccc1)C(=O)N[C@H]1c2ccccc2C[C@H]1O)O[C@H]1CCCOC1 [(3S)-oxan-3-yl N-[(2S,3S,5R)-5-benzyl-3-hydroxy-5-{[(1S,2R)-2-hydroxy-2,3-dihydro-1H-inden-1-yl]carbamoyl}-1-phenylpentan-2-yl]carbamate]	< 0.03
CC(C)(C)NC(=O)C1C[C@@H]2CCCC[C@@H]2CN1C[C@@H](O)[C@H](Cc1ccccc1)NC(=O)O[C@H]1CCCOC1 (stereo partly drawn) [(3S)-oxan-3-yl N-[(2S,3R)-4-[(4aS,8aS)-3-(tert-butylcarbamoyl)-decahydroisoquinolin-2-yl]-3-hydroxy-1-phenylbutan-2-yl]carbamate]	392
O=C(N[C@@H](Cc1ccccc1)[C@@H](O)C[C@@H](Cc1ccccc1)C(=O)N[C@H]1c2ccccc2C[C@H]1O)O[C@@H]1CCCOC1 [(3R)-oxan-3-yl N-[(2S,3S,5R)-5-benzyl-3-hydroxy-5-{[(1S,2R)-2-hydroxy-2,3-dihydro-1H-inden-1-yl]carbamoyl}-1-phenylpentan-2-yl]carbamate]	< 0.03
CC(C)(C)NC(=O)C1C[C@@H]2CCCC[C@@H]2CN1C[C@@H](O)[C@H](Cc1ccccc1)NC(=O)OC(C)(C)C (stereo partly drawn) [tert-butyl N-[(2S,3R)-4-[(4aS,8aS)-3-(tert-butylcarbamoyl)-decahydroisoquinolin-2-yl]-3-hydroxy-1-phenylbutan-2-yl]carbamate]	> 3000
CC(C)(C)NC(=O)C1C[C@@H]2CCCC[C@@H]2CN1C[C@@H](O)[C@H](Cc1ccccc1)NC(=O)O[C@@H]1CCCOC1 (stereo partly drawn) [(3R)-oxan-3-yl N-[(2S,3R)-4-[(4aS,8aS)-3-(tert-butylcarbamoyl)-decahydroisoquinolin-2-yl]-3-hydroxy-1-phenylbutan-2-yl]carbamate]	308
O=C(N[C@@H](Cc1ccccc1)[C@@H](O)C[C@@H](Cc1ccccc1)C(=O)N[C@H]1c2ccccc2C[C@H]1O)O[C@H]1CCOC1 [(3S)-oxolan-3-yl N-[(2S,3S,5R)-5-benzyl-3-hydroxy-5-{[(1S,2R)-2-hydroxy-2,3-dihydro-1H-inden-1-yl]carbamoyl}-1-phenylpentan-2-yl]carbamate]	< 0.03
